“Also recorded” adds a separate entry of the source. Read-outs that look alike come from different tables or passages of the source.

For data set [1], the system named is aversion to alcohol in humans. As to the kind of experiment: Alcohol withdrawal/aversion treatment in patients (case histories). Type of data set: in vivo. The method, then:
In a particularly preferred mode of administration, tablets or dragees containing about 800 mg. of I are used. As an example of its use, after at least 12 hours of alcohol abstention, a half tablet (400 mg.) can be given in the morning before eating, and another half on the next day.
22 Men and 5 women were treated with the new agent I. The youngest patient was 22 and the oldest 68. The average age was 44 years. After the first administration (400 mg., twice), as described above, the dosage consisted of a single oral administration of 800 mg. per week. The highest total dosage amounted to 67 g. of I. With this, the patient could be protected against the influence of alcohol for 84 weeks.
In assessment of success, 5 cases are to be discounted from the total of 27 I treatments. […] Thus, 22 cases remain which can be considered as I treatments. In 12 of these cases, the withdrawal treatment was successful; in three cases questionable; and 7 cases without success. […] After taking 11 g. of I and more (corresponding to an active level period of over 14 weeks), 8 successful cases were counted and two had questionable success. Below 6 g. of I (corresponding to an active level of not more than 8 weeks), there were seven failures; one questionable case and only 2 successful withdrawals.

Data set [2] is described as follows: Side effects / tolerability on administration. Type of data set: in vivo, humans. An excerpt:
It can even appear upon merely smelling the atmosphere of a barroom. […] However, in comparison with the known severe results of a marked abuse of alcohol, these side effects are negligible.

The subject of data set [3] is acetaldehyde content of the blood. Briefly: Acetaldehyde content of the blood after the consumption of alcohol. The class given is in vivo. The text has this:
(§1) In contrast, important enzyme systems are inhibited by use of disulfiram.

Data set [4] relates to important enzyme systems. As to the kind of experiment: Inhibition of important enzyme systems. The class given is biochemical. To be noted: compound I.
Excerpt: as §1

Another data set concerns trypanosomes. To be noted: known from P 16 20 043 / GB 1,133,408; cited from earlier work.
Data set [5] can be described thus: Half-life time of the active material. The following applies: in vivo.
The nature of data set [6]: Critical examinations for possible damages (clinical laboratory and blood pressure determinations). Type of data set: in vivo, humans. To be noted: bilirubin in the blood. The text has this:
In addition to the treatment with I, critical examinations for possible damages were undertaken. […] However, this observation probably only applies indirectly and exclusively to alcohol-toxic liver damages because toxic alcohol which was no longer inhibited, no longer acted upon the liver.

For data set [7] the following is noted: disulfiram, cited from earlier work.
Data set [8] deals with important enzyme systems. The following applies: disulfiram; cited from earlier work.
[9] abbreviates: below 6 g. of I (active level of not more than 8 weeks).
Setting [10] is: after administration of I, humans.

The half-life is how long it takes for the measured level to halve. In turn, `Cc1nc([N+](=O)[O-])cn1-c1ccc([N+](=O)[O-])cc1` [compound I, 1-(4-nitrophenyl)-2-methyl-4-nitroimidazole] returned a successful cases in data set [1] (11 g. of I and more (active level period of over 14 weeks)) of 8 cases. Besides, the “correlation of success with period of the withdrawal treatment” value in data set [1] (22 evaluable cases) is “clearly correlated”. For the same molecule, the outcome of treatment in [1] (Example 1: champagne cellerman, total dosage 67 g., first treatment from May 1972) is “the patient behaved normally and worked regularly”. Besides, the “outcome of renewed treatment” value in data set [1] (Example 1: treatment begun again after relapse in May 1974, up to January 1975) was “same good success”. Further, the “effect of alcohol after discontinuation of treatment” value in data set [1] (Example 2: one month after discontinuation (treated November 1973 to February 1974)) is “throbbing headache caused by alcohol”. In addition, the outcome of treatment in [1] (Example 2: storekeeper, total dosage 57 g., since April 1974, relatively regular taking of tablets) is recorded as “normal, regular work”. The outcome of treatment in data set [1] (Example 3: total dosage 37 g., after renewed treatment November 1973 to January 1975) is given as “no alcohol”. In addition, the outcome of treatment in data set [1] (Example 4: immigrant worker, total dosage 25 g., statement of spouse) is “successful breaking of the habit”. The “alcohol consumption since the end of the treatment” value in data set [1] (Example 4: total dosage 25 g., according to statements of the wife) is “only had an occassional 1-2 glasses of wine”. For the same molecule, in data set [1] (Example 5: employee, total dosage 17 g., after treatment September 1974 to February 1975), the outcome of treatment is listed as “alcohol-free”. In data set [1] (after the administration of I, humans), the revulsion against alcohol result is listed as “a pronounced revulsion against alcohol is produced; also recorded: causes an aversion to alcohol in humans”. Moreover, in [1] (setting [9]), the failures entry is listed as “seven”, the questionable case result is “one” and the successful withdrawals was 2. In addition, the “patient protected against the influence of alcohol, duration” value in [1] (highest total dosage 67 g., 400 mg. twice, then oral 800 mg. per week) was determined as 84 weeks. In [1] (of 22 evaluable cases), the withdrawal treatment questionable entry was “three”, the withdrawal treatment successful came to 12 cases and the “withdrawal treatment without success” value was determined as 7 cases. In addition, the compatibility result in data set [2] (Example 1: after first 400 mg.) is listed as “Good compatibility”. For the same molecule, in data set [2] (setting [10]), the “severity of side effects” value is on record as “generally minor”; the “side effects which occasionally appear” value is “tachycardia, flush-like skin reddenings, sickly feelings, headache and hangover”. Besides, in data set [3], the “acetaldehyde content of the blood” value was “increase”. The “inhibition of important enzyme systems” value with important enzyme systems [4] is listed as “No such inhibition occurs”. In the data set with trypanosomes, the “effectiveness against disease-causing trypanosomes” value was “effectiveness”. For the same molecule, in data set [5], the half-life was over 40 h. Further, the liver function tests entry in [6] (γ-GT and γ-globulins, probably indirect, alcohol-toxic liver damages only) is reported as “clear normalizations”. Besides, the “harmful side effects in laboratory examinations” value in data set [6] (lymphocytes, GT, GOT, GPT, total protein, β-globulins, γ-globulins, cholesterol, RR systolic) is “no indications of harmful side effects”.
With `CCN(CC)C(=S)SSC(=S)N(CC)CC` [disulfiram], in data set [7] (orally administered), the side effects entry is “several undesirable side effects”. For the same molecule, in [7] (inter alia diabetes), the contraindication entry was “contraindicated by, inter alia, diabetes”. Besides, the “inhibition of important enzyme systems” value in the data set on important enzyme systems [8] is recorded as “inhibited”.

The values are drawn from patent publication US4182770A, “Alcohol deterrent” (priority 1976, dated 1980).
